# Assay results as given in ChEMBL document CHEMBL1201862, “PubChem BioAssay data set” (2004).
# Calls of active or inactive are those of the source.
# What was measured:
# [1] = system: Streptococcus sp. 'group A'; assay: Streptococcus pyogenes SK(-)GAS viability under kanamycin – luminescence, BacTiterGlo, confirmation, counter-screen for streptokinase expression inhibitor project, dose response (AID 1900); format: functional, organism-based
# [2] = biological target: Tyrosyl-DNA phosphodiesterase 2 (Homo sapiens, UniProt O95551); assay: potency against TDP2 phosphodiesterase activity – biochemical, epi absorbance, IC50, dose response (AID 743297)
# [3] = biological target: T1, Sentrin-specific protease 7 (Homo sapiens, UniProt Q9BQF6); format: functional;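 also: Luminescence-based dose-response confirmation of ultra-high-throughput screening hits, measuring inhibition of SENP7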
# T1 sequence (Q9BQF6 whole entry): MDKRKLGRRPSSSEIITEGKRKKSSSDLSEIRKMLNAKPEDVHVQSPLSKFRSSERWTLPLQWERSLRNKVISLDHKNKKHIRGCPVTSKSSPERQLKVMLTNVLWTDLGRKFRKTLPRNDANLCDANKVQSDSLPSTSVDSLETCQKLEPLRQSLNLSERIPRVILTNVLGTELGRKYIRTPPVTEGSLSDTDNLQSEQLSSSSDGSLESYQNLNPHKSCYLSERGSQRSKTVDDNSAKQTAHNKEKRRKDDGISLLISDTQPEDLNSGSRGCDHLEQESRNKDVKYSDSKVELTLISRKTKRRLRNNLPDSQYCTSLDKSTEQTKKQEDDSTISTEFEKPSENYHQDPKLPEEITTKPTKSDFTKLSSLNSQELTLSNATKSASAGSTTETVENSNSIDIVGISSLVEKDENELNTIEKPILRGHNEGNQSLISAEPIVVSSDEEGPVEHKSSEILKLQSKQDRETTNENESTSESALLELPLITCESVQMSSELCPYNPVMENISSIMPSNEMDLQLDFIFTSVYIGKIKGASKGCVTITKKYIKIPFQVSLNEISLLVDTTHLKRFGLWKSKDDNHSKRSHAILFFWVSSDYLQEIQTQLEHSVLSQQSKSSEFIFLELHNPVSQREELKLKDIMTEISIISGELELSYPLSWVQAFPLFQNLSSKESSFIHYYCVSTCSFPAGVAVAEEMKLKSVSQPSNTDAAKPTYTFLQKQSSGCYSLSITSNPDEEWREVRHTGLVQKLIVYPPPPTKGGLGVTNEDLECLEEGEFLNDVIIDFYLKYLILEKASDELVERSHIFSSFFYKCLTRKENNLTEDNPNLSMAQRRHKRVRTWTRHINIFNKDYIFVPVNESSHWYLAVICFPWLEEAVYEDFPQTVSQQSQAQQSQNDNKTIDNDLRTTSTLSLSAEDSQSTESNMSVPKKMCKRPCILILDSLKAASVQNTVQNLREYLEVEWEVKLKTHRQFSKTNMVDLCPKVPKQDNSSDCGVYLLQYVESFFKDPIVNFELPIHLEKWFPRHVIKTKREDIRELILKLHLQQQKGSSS
# Streptococcus = assay: GAS UMAA2166 growth inhibition – luminescence, BacTiterGlo, counter-screen for streptokinase expression inhibitor project, dose response (AID 1915); format: functional, organism-based;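 also: potency for reduction of bacterial viability or growth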
# [4] = biological target: T2, Sentrin-specific protease 6 (Homo sapiens, UniProt Q9GZR1); format: functional;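 also: Luminescence-based dose-response confirmatory assay of SENP6 inhibition, following up an ultra-high-throughput screen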
# T2 sequence (Q9GZR1 whole entry): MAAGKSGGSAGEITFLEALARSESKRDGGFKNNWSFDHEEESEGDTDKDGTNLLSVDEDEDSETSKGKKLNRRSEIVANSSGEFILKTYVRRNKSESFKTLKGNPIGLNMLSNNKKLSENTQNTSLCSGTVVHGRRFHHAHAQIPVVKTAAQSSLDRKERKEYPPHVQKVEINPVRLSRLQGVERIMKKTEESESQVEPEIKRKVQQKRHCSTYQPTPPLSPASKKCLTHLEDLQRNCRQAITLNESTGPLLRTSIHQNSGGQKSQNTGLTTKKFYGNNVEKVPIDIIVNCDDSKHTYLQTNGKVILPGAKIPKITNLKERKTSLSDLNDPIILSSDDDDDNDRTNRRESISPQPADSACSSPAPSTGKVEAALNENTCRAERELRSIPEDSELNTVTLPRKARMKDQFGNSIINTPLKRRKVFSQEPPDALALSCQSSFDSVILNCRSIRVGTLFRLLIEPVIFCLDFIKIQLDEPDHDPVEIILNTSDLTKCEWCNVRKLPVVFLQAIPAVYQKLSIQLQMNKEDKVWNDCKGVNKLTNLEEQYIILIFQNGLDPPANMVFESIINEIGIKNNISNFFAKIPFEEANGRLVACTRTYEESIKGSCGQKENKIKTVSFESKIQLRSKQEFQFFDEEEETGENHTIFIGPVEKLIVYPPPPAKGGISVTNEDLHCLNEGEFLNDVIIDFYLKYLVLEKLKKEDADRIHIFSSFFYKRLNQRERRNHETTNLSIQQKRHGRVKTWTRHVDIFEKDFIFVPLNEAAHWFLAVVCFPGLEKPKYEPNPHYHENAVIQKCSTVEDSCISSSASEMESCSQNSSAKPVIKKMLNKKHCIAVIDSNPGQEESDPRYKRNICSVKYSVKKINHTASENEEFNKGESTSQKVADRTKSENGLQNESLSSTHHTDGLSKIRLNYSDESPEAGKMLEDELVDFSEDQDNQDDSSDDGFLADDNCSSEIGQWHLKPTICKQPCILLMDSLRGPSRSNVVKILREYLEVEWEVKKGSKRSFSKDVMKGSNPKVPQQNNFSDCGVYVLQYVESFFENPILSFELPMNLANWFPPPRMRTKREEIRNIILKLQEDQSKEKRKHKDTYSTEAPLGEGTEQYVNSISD
# Streptokinase A = biological target: T3, Streptokinase A (Streptococcus pyogenes serotype M1, UniProt P10520); assay: viability-normalized secreted streptokinase activity reduction – plasminogen activation absorbance, OD405, dose response (AID 1914); format: functional, Streptococcus pyogenes M1 GAS;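 also: secreted streptokinase activity via plasminogen activation per viability signal from cell pellet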
# T3 sequence (P10520 whole entry): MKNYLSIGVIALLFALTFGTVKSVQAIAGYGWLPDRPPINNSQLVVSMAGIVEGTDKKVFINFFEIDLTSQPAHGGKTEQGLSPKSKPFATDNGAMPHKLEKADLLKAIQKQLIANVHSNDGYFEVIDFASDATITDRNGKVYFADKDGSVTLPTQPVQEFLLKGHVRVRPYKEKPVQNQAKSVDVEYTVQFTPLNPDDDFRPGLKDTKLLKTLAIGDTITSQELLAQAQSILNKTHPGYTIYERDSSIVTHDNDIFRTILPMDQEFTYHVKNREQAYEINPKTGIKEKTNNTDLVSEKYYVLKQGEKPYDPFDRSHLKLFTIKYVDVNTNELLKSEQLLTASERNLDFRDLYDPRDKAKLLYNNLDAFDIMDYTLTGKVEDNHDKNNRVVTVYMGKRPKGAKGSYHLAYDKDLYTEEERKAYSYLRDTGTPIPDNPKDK
# Chain of Tyrosyl-DNA phosphodiesterase 2 (O95551 whole entry): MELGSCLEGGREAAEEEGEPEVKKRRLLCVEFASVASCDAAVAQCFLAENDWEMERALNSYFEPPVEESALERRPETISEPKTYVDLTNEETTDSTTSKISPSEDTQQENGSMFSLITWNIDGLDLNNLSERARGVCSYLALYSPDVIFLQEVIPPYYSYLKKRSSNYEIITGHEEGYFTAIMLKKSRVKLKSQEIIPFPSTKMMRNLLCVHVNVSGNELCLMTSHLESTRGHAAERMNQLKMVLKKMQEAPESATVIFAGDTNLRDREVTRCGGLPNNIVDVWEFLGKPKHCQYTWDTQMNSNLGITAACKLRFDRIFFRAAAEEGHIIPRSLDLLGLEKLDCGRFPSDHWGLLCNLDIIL
smiles,measurement,setting,value
Clc1ccc(C2=CSC3=Nc4cccc5cccc(c45)N23)cc1,EC50,[1],4.17 µM (active)
same,IC50,[2],> 128 µM (inactive)
same,IC50,[3],5.65 µM (active)
same,EC50,Streptococcus,17.1 µM (active)
same,IC50,[4],1.89 µM (active)
same,EC50,Streptokinase A,> 150 µM (not active)
